Patent US4864023A, “Pyrido(3,2,1-IJ)-1,3,4-benzoxadiazine derivatives” (priority 1988, dated 1989)
≈ marks a conversion by molar mass, not a printed value. Like-named read-outs stand apart in the source and are kept apart here.

Experiments:
[1] = tested on: Bacillus subtilis PCI 219; assay: in vitro antibacterial activity, standard agar dilution method; type: cell-based; settings: PCI219, aerobic, read-out: minimum inhibitory concentration (MIC)
[2] = tested on: Staphylococcus aureus FDA 209P JC-1; assay: as above; type: cell-based; settings: FDA209P, read-out: minimum inhibitory concentration (MIC)
[3] = tested on: Staphylococcus aureus NR 2855; assay: as above; type: cell-based; settings: NR2855; Staphylococcus aureus NR 2855; aerobic; agar dilution; read-out: minimum inhibitory concentration (MIC)
[4] = tested on: Staphylococcus aureus Smith; assay: as above; type: cell-based; settings: read-out: minimum inhibitory concentration (MIC)
[5] = tested on: Staphylococcus epidermidis IFO 12993; assay: as above; type: cell-based; settings: IFO12993, aerobic, read-out: minimum inhibitory concentration (MIC)
[6] = tested on: Staphylococcus epidermidis NR 2942; assay: as above; type: cell-based; settings: NR2942, aerobic, read-out: minimum inhibitory concentration (MIC)
[7] = tested on: Enterococcus faecalis NR 2943; assay: as above; type: cell-based; settings: NR2943, aerobic, read-out: minimum inhibitory concentration (MIC)
[8] = tested on: Alcaligenes faecalis IFO 13111; assay: as above; type: cell-based; settings: IFO13111, aerobic, read-out: minimum inhibitory concentration (MIC)
[9] = tested on: Citrobacter freundii IFO 12681; assay: as above; type: cell-based; settings: IFO12681, aerobic, read-out: minimum inhibitory concentration (MIC)
[10] = tested on: Enterobacter aerogenes NR 2945; assay: as above; type: cell-based; settings: Klebsiella aerogenes, NR2945, aerobic, read-out: minimum inhibitory concentration (MIC)
[11] = tested on: Enterobacter cloacae NR 2946; assay: as above; type: cell-based; settings: NR2946, aerobic, read-out: minimum inhibitory concentration (MIC)
[12] = tested on: Escherichia coli NIHJ JC-2; assay: as above; type: cell-based; settings: NIHJJC2, aerobic, read-out: minimum inhibitory concentration (MIC)
Escherichia coli NR 2630 = assay: as above; type: cell-based
[13] = tested on: Klebsiella pneumoniae FDA PCI 602; assay: as above; type: cell-based; settings: FDAPCI602, aerobic, read-out: minimum inhibitory concentration (MIC)
[14] = tested on: Bordetella bronchiseptica ATCC 4617; assay: as above; type: cell-based; settings: ATCC4617, aerobic, read-out: minimum inhibitory concentration (MIC)
[15] = tested on: Proteus rettgeri ATCC 14505; assay: as above; type: cell-based; settings: Providencia rettgeri, ATCC14505, aerobic, read-out: minimum inhibitory concentration (MIC)
[16] = tested on: Proteus vulgaris OX19 ATCC 6898; assay: as above; type: cell-based; settings: ATCC6898, aerobic, read-out: minimum inhibitory concentration (MIC)
[17] = tested on: Pseudomonas aeruginosa A3; assay: as above; type: cell-based; settings: aerobic, read-out: minimum inhibitory concentration (MIC)
[18] = tested on: Pseudomonas aeruginosa NR 2950; assay: as above; type: cell-based; settings: NR2950, aerobic, read-out: minimum inhibitory concentration (MIC)
[19] = tested on: Pseudomonas stutzeri IFO 12695; assay: as above; type: cell-based; settings: Stutzerimonas stutzeri, IFO12695, aerobic, read-out: minimum inhibitory concentration (MIC)
[20] = tested on: Serratia marcescens IFO 12648; assay: as above; type: cell-based; settings: IFO12648, aerobic, read-out: minimum inhibitory concentration (MIC)
[21] = tested on: Salmonella typhimurium IFO 12529; assay: as above; type: cell-based; settings: Salmonella enterica, aerobic, read-out: minimum inhibitory concentration (MIC)
[22] = acute toxicity by oral administration; settings: mouse, in vivo; oral administration, ICR mice; read-out: LD50
Source text: The acute toxicity of these compounds was examined by oral administration in ICR mice.

[23] = Staphylococcus aureus Smith, aerobic, agar dilution
[24] = NR2630, Escherichia coli NR 2630, aerobic, agar dilution, read-out: minimum inhibitory concentration (MIC)

| SMILES | MIC [1] | MIC ([2]; Staphylococcus aureus) | MIC [3] | MIC [5] | MIC [6] | MIC [7] | MIC [8] | MIC [9] | MIC [10] | MIC [11] | MIC [12] | MIC [13] | MIC [14] | MIC [15] | MIC [16] | MIC [17] | MIC [18] | MIC [19] | MIC [20] | MIC [21] | also measured |
| --- | --- | --- | --- | --- | --- | --- | --- | --- | --- | --- | --- | --- | --- | --- | --- | --- | --- | --- | --- | --- | --- |
| CN1COc2c(N3CCNCC3)c(F)cc3c(=O)c(C(=O)O)cn1c23 [Example 6, 9-fluoro-3-methyl-7-oxo-10-(1-piperazinyl)-2,3-dihydro-7H-pyrido[3,2,1-ij]-1,3,4-benzoxadiazine-6-carboxylic acid] | 0.1 µg/mL (≈ 0.287 µM) | 0.39 µg/mL (≈ 1.12 µM) | 3.13 µg/mL (≈ 8.99 µM) | 1.56 µg/mL (≈ 4.48 µM) | 1.56 µg/mL (≈ 4.48 µM) | 12.5 µg/mL (≈ 35.9 µM) | 3.13 µg/mL (≈ 8.99 µM) | 0.013 µg/mL (≈ 0.0373 µM) | 0.013 µg/mL (≈ 0.0373 µM) | 0.025 µg/mL (≈ 0.0718 µM) | 0.025 µg/mL (≈ 0.0718 µM) | 0.1 µg/mL (≈ 0.287 µM) | 6.25 µg/mL (≈ 17.9 µM) | 0.1 µg/mL (≈ 0.287 µM) | 0.013 µg/mL (≈ 0.0373 µM) | 0.1 µg/mL (≈ 0.287 µM) | 0.78 µg/mL (≈ 2.24 µM) | 0.025 µg/mL (≈ 0.0718 µM) | 0.1 µg/mL (≈ 0.287 µM) | 0.013 µg/mL (≈ 0.0373 µM) | MIC ([4]; Staphylococcus aureus): 0.39 µg/mL (≈ 1.12 µM); MIC (Escherichia coli NR 2630; Escherichia coli, NR2630, read-out: minimum inhibitory concentration (MIC)): 0.025 µg/mL (≈ 0.0718 µM); LD50 [22]: > 2000 mg/kg |
| CC1CN(c2c(F)cc3c(=O)c(C(=O)O)cn4c3c2OCN4C)CCN1 (stereo not drawn) [Example 7, 9-fluoro-3-methyl-10-(3-methyl-1-piperazinyl)-7-oxo-2,3-dihydro-7H-pyrido[3,2,1-ij]-1,3,4-benzoxadiazine-6-carboxylic acid] | 0.1 µg/mL (≈ 0.276 µM) | 0.39 µg/mL (≈ 1.08 µM) | 1.56 µg/mL (≈ 4.31 µM) | 0.78 µg/mL (≈ 2.15 µM) | 0.78 µg/mL (≈ 2.15 µM) | 12.5 µg/mL (≈ 34.5 µM) | 6.25 µg/mL (≈ 17.2 µM) | 0.05 µg/mL (≈ 0.138 µM) | 0.05 µg/mL (≈ 0.138 µM) | 0.1 µg/mL (≈ 0.276 µM) | 0.1 µg/mL (≈ 0.276 µM) | 0.39 µg/mL (≈ 1.08 µM) | 3.13 µg/mL (≈ 8.64 µM) | 0.78 µg/mL (≈ 2.15 µM) | 0.025 µg/mL (≈ 0.069 µM) | 0.2 µg/mL (≈ 0.552 µM) | 3.13 µg/mL (≈ 8.64 µM) | 0.05 µg/mL (≈ 0.138 µM) | 0.2 µg/mL (≈ 0.552 µM) | 0.05 µg/mL (≈ 0.138 µM) | MIC [4, 23]: 0.2 µg/mL (≈ 0.552 µM); MIC (Escherichia coli NR 2630; [24]): 0.025 µg/mL (≈ 0.069 µM); LD50 [22]: > 2000 mg/kg |
| CN1COc2c(N3CCCNCC3)c(F)cc3c(=O)c(C(=O)O)cn1c23 [Example 16] | 0.2 µg/mL (≈ 0.552 µM) |  | 6.25 µg/mL (≈ 17.2 µM) | 1.56 µg/mL (≈ 4.31 µM) | 1.56 µg/mL (≈ 4.31 µM) | 25 µg/mL (≈ 69 µM) | 50 µg/mL (≈ 138 µM) | 0.1 µg/mL (≈ 0.276 µM) | 0.05 µg/mL (≈ 0.138 µM) | 0.1 µg/mL (≈ 0.276 µM) | 0.2 µg/mL (≈ 0.552 µM) | 1.56 µg/mL (≈ 4.31 µM) | 25 µg/mL (≈ 69 µM) | 1.56 µg/mL (≈ 4.31 µM) | 0.1 µg/mL (≈ 0.276 µM) | 0.39 µg/mL (≈ 1.08 µM) | 6.25 µg/mL (≈ 17.2 µM) | 0.05 µg/mL (≈ 0.138 µM) | 0.39 µg/mL (≈ 1.08 µM) | 0.1 µg/mL (≈ 0.276 µM) | MIC ([2]; Staphylococcus aureus FDA 209P JC-1, aerobic, agar dilution): 0.39 µg/mL (≈ 1.08 µM); MIC [4, 23]: 0.39 µg/mL (≈ 1.08 µM); LD50 [22]: > 2000 mg/kg |
| CN1COc2c(N3CCN(CS(=O)(=O)O)CC3)c(F)cc3c(=O)c(C(=O)O)cn1c23 [Example 52, disodium 9-fluoro-3-methyl-7-oxo-10-[4-(sulfonatomethyl)-1-piperazinyl]-2,3-dihydro-7H-pyrido-[3,2,1-ij]-1,3,4-benzoxadiazine-6-carboxylate] | 0.2 µg/mL | 0.39 µg/mL | 3.13 µg/mL | 1.56 µg/mL | 1.56 µg/mL | 25 µg/mL | 12.5 µg/mL | 0.025 µg/mL | 0.025 µg/mL | 0.05 µg/mL | 0.05 µg/mL | 0.2 µg/mL | 6.25 µg/mL | 0.2 µg/mL | 0.025 µg/mL | 0.2 µg/mL | 1.56 µg/mL | 0.05 µg/mL | 0.2 µg/mL | 0.025 µg/mL | MIC ([4]; Staphylococcus aureus): 0.39 µg/mL; MIC (Escherichia coli NR 2630; [24]): 0.025 µg/mL |
